Source: ChEMBL document CHEMBL4392828, “Structural modification of indomethacin toward selective inhibition of COX-2 with a significant increase in van der Waals contributions” (Bioorg Med Chem, 2019)
Active and inactive are the calls of the source. No cut-off for these calls is given here.

Molecular target: T1, Prostaglandin G/H synthase 1 (Ovis aries) (UniProt P05979)
T1 sequence (whole entry): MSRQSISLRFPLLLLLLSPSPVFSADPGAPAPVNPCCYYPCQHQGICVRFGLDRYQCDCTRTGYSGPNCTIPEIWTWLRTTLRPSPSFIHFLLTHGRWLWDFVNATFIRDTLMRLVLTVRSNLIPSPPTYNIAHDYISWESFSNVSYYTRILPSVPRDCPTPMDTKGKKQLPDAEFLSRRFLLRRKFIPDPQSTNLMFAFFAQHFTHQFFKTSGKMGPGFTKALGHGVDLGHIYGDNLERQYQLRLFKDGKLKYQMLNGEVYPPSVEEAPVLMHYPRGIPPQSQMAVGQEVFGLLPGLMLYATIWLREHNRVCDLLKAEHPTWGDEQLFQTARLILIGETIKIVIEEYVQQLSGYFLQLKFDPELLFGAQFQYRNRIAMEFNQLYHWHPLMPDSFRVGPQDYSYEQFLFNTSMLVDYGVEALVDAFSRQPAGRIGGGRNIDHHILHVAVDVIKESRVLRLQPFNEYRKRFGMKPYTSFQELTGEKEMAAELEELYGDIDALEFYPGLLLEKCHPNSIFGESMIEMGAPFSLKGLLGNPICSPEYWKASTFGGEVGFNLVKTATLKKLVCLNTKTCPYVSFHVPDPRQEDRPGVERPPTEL
Test: Inhibition of ovine COX1 assessed as reduction in PGF2alpha production up to 2000 nM using arachidonic acid as substrate incubated for 10 mins by EIA method relative to indomethacin

Structure (SMILES): COc1ccc2c(c1)c(CC(=O)O)c(/C=C/C(F)(F)F)n2C(=O)c1ccc(Cl)cc1
- inhibition: inactive
